Here are results for ten compounds from patent US8557805B2, “Fused ring compound and use thereof” (Takeda Pharmaceutical Company Limited, priority 2008, dated 2013).

Molecules are shown by their SMILES.

Series [1] concerns the target T1, human liver GK (GST-hLGK1) (Homo sapiens, UniProt P35557).
T1 construct: with a BamHI site added to immediately before the initiation codon; made in house; host or cells: Escherichia coli BL21 (Stratagene), plasmid pGEX6P-2/hLGK1
T1 sequence (P35557 1-464 isoform P35557-3): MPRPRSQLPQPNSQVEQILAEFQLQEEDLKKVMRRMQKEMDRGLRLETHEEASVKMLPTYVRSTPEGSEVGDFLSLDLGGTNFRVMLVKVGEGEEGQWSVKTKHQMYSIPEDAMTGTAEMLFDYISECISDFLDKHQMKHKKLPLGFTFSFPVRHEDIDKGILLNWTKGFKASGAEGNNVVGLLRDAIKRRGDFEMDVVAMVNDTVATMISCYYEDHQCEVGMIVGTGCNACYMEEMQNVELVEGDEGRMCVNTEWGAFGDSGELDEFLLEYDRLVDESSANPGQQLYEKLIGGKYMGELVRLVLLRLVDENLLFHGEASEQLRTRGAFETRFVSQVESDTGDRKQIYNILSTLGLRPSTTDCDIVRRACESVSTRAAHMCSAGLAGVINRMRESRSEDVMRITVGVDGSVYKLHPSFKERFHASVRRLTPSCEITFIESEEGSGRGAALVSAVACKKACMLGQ
Briefly: Determination of GK activity value (Mant-ATP to Mant-ADP conversion, capillary electrophoresis). The format is biochemical. To be noted: reaction started with 25 mM D-glucose solution, 37° C., 60 min, concentration at midpoint between maximum activity value and control group activity value. The protocol: Plasmid DNA to be used for the expression of a protein (GST-hLGK1) containing GST (Glutathione S-transferase) added to the amino terminal of human liver GK in Escherichia coli was prepared as follows.
First, PCR was performed using human liver cDNA (Marathon Ready cDNA, Clontech Laboratories, Inc.) as a template and two kinds of synthetic DNAs (5′-[…]-3′ (SEQ ID NO: 1) and 5′-[…]-3′ (SEQ ID NO: 2)), and the obtained DNA fragment was closed using a TOPO TA Cloning Kit (Invitrogen Corporation). PCR was performed using the obtained plasmid DNA as a template and a synthetic DNA (5′-[…] CAGAG-3′ (SEQ ID NO: 3)) with a BamHI site added to immediately before the initiation codon, and a synthetic DNA (5′-[…]-3′ (SEQ ID NO: 4)) with an EcoRI site added to immediately after the stop codon. The obtained DNA fragment was subcloned to pGEX6P-2 (Amersham Biosciences K.K.) cleaved with BamHI and EcoRI to give a plasmid (pGEX6P-2/hLGK1) for expression of human liver GK.
BL21 strain (Stratagene) transformed with pGEX6P-2/hLGK1 obtained in (1) was cultured with shaking at 37° C. for 14 hr in a 200 ml Erlenmeyer flask containing 50 ml of 100 μg/ml ampicillin-containing LB medium. The culture medium (25 ml) was diluted with 225 ml of 100 μg/ml ampicillin-containing LB medium, and further cultured with shaking at 37° C. for 1 hr in a 1 L Erlenmeyer flask. After culture, the Erlenmeyer flask was cooled on ice, 125 μL of 100 mM isopropyl-thio-β-D-galactopyranoside (IPTG) was added (final concentration 50 μM), and cultured at 17° C. for 20 hr. The culture medium was centrifuged, and the obtained fungus was disrupted by ultrasonication. The object protein (GST-hLGK1) was purified from the supernatant using Glutathione Sepharose 4B (Amersham Biosciences K.K.).
A solution (5 μL) of test compound in 50% dimethyl sulfoxide was added to each well of 384 well black plate (Nalge Nunc International K.K.). Then, a solution (35 μL) obtained by diluting GST-hLGK1 obtained in (2) with measurement buffer (containing 50 mM HEPES (pH 7.4), 200 mM KCl, 5 mM MgCl2, 2.5 mM DTT and 50 μM 2′-(or-3′)-O—(N-methylanthraniloyl)adenosine 5′-triphosphate (Mant-ATP) (Jena Bioscience GmbH)) to 6 μg/mL was added to each well.
Each well was stood at 37° C. for 10 min, and 25 mM D-glucose solution (10 μL) was added to start the reaction.
Each well after the reaction was stood at 37° C. for 60 min, and the reaction was quenched by adding 25 μL of a quenching solution (containing 200 mM HEPES (pH 7.4), 20 mM MgCl2, 200 mM EDTA, 0.03% Triton-X 100, 0.3% Coating 3 reagent (Caliper Life Sciences, Inc.)).
2′-(or -3′)-O—(N-methylanthraniloyl)adenosine 5′-triphosphate (Mant-ATP, substrate) and Mant-ADP (reaction resultant product) were separated from each well after the reaction by a microchip type capillary electrophoresis apparatus 250 HTS (Caliper Life Sciences, Inc.). The reaction rate [(reaction resultant product peak height)/(reaction resultant product peak height+substrate peak height)×100(%)] was calculated from the ratio of the substrate peak height and reaction resultant product peak height obtained by fluorescence detection (excitation wavelength 355 nm, measurement wavelength 460 nm) and used as the index of GK activity.
3.5 As a control group, the reaction rate was calculated in the same manner as above except that “solution in 50% dimethyl sulfoxide (without test compound)” was used instead of “solution of test compound in 50% dimethyl sulfoxide”.
A concentration dependency curve of the test compound was drawn with the percentage obtained by dividing the reaction rate of the well added with the test compound (test compound addition group) by the reaction rate of the control group was taken as the GK activity value of the test compound, and the concentration of the test compound at the midpoint between the maximum activity value of the test compound addition group and the control group activity value is shown as EC50 value.

`CNC(=O)CC1CN=C(c2cc3cc(Oc4ccc(S(C)(=O)=O)nc4)ccc3[nH]2)S1` (single isomer, unassigned) [Example 78, N-Methyl-2-[2-(5-{[6-(methylsulfonyl)pyridin-3-yl]oxy}-1H-indol-2-yl)-4,5-dihydro-1,3-thiazol-5-yl]acetamide]: the melting point fell in the range of 178 to 180 °C. Besides, a half-maximal response in series [1] (EC50) required 80 nM.

Turning to `CNC(=O)CC1CN=C(c2cc3cc(Oc4ccc(S(C)(=O)=O)cn4)cc(OC4CCOCC4)c3[nH]2)S1` (centres unmarked) [Example 17, N-Methyl-2-{2-[5-{[5-(methylsulfonyl)pyridin-2-yl]oxy}-7-(tetrahydro-2H-pyran-4-yloxy)-1H-indol-2-yl]-4,5-dihydro-1,3-thiazol-5-yl}acetamide], the melting point fell in the range of 170 to 172 °C. This compound yielded an EC50 in series [1] of 90 nM.

With `CCNC(=O)CC1CN=C(c2cc3cc(Oc4ccc(S(C)(=O)=O)nc4)cc(OC4CCOCC4)c3[nH]2)S1` (centres unmarked) [Example 42, N-Ethyl-2-{2-[5-{[6-(methylsulfonyl)pyridin-3-yl]oxy}-7-(tetrahydro-2H-pyran-4-yloxy)-1H-indol-2-yl]-4,5-dihydro-1,3-thiazol-5-yl}acetamide], the melting point lay in the range of 197 to 198 °C. Besides, the EC50 in series [1] stood at 21 nM.

Regarding `CS(=O)(=O)c1ccc(Oc2cc(OC3CCOCC3)c3[nH]c(C4=NCC(CC(=O)NC5CC5)S4)cc3c2)cn1` (centres unmarked) [Example 37, N-Cyclopropyl-2-{2-[5-{[6-(methylsulfonyl)pyridin-3-yl]oxy}-7-(tetrahydro-2H-pyran-4-yloxy)-1H-indol-2-yl]-4,5-dihydro-1,3-thiazol-5-yl}acetamide], the melting point was 175 to 176 °C. The same compound registered an EC50 in series [1] of 16 nM.

`CS(=O)(=O)c1ccc(Oc2ccc3[nH]c(C4=NCC(CC(=O)N5CCOCC5)S4)cc3c2)cn1` (centres unmarked) [Example 58, 5-{[6-(Methylsulfonyl)pyridin-3-yl]oxy}-2-[5-(2-morpholin-4-yl-2-oxoethyl)-4,5-dihydro-1,3-thiazol-2-yl]-1H-indole] returned a melting point of 190 to 191 °C. The compound also came in with an EC50 in series [1] of 120 nM.

In turn, `Cc1cc(Oc2ccc(S(C)(=O)=O)nc2)cc2cc(C3=NCC(CC(=O)N4CC[S+]([O-])CC4)S3)[nH]c12` (centres unmarked) [Example 81, 7-Methyl-5-{[6-(methylsulfonyl)pyridin-3-yl]oxy}-2-{5-[2-(1-oxidothiomorpholin-4-yl)-2-oxoethyl]-4,5-dihydro-1,3-thiazol-2-yl}-1H-indole] had a melting point of 157 to 160 °C. Further, in series [1], the EC50 was determined as 48 nM.

`Cc1cc(Oc2ccc(S(C)(=O)=O)nc2)cc2cc(C3=NCC(CC(=O)N4CCOCC4)S3)[nH]c12` (centres unmarked) [Example 80, 7-Methyl-5-{[6-(methylsulfonyl)pyridin-3-yl]oxy}-2-[5-(2-morpholin-4-yl-2-oxoethyl)-4,5-dihydro-1,3-thiazol-2-yl]-1H-indole] gave a melting point of 152 to 154 °C. For the same compound, the midpoint of the response in series [1], the EC50, lay at 54 nM.

Consider `CNC(=O)CC1CN=C(c2cc3cc(Oc4ccc(S(C)(=O)=O)nc4)ccc3[nH]2)S1` (centres unmarked) [Example 53, N-Methyl-2-[2-(5-{[6-(methylsulfonyl)pyridin-3-yl]oxy}-1H-indol-2-yl)-4,5-dihydro-1,3-thiazol-5-yl]acetamide], for which the melting point lay within 150 to 152 °C. The EC50 in series [1] is 130 nM.

As for `CS(=O)(=O)c1ccc(Oc2ccc3[nH]c(C4=NCC(CC(=O)N5CCOCC5)S4)cc3c2)cn1` (single isomer, unassigned) [Example 69, 5-{[6-(Methylsulfonyl)pyridin-3-yl]oxy}-2-[5-(2-morpholin-4-yl-2-oxoethyl)-4,5-dihydro-1,3-thiazol-2-yl]-1H-indole], the melting point lay within 167 to 168 °C. This compound came in with an EC50 in series [1] of 28 nM.

The compound `CS(=O)(=O)c1ccc(Oc2ccc3[nH]c(C4=NCC(CC(=O)NCC(F)(F)F)S4)cc3c2)cn1` (centres unmarked) [Example 56, 2-[2-(5-{[6-(Methylsulfonyl)pyridin-3-yl]oxy}-1H-indol-2-yl)-4,5-dihydro-1,3-thiazol-5-yl]-N-(2,2,2-trifluoroethyl)acetamide] gave a melting point of 234 to 235 °C. The same compound showed a concentration giving a half-maximal response (EC50) in series [1] of 73 nM.
